# Measurements from patent publication US11891396B1, “5-substituted pyrido[3″,4″:4′,5′]pyrrolo[3′,2′:4,5]imidazo[1,2-a]pyrazine compounds as CK2 inhibitors” (KING FAISAL UNIVERSITY, priority 2023, dated 2024).
# What was measured:
# H1299 (lung) = test: In vitro cytotoxic activity assay (MTT), H1299; format: cell-based; details: Homo sapiens, NCI-H1299; H1299 (lung) cells, exposed for 96 hours; read-out: IC50, concentration eliciting 50% inhibition of cell proliferation
# Description: (§1) Compounds 1-15 were screened for their in vitro cytotoxic activity utilizing a 3-(4,5-dimethyl-thiazol-2-yl)-2,5-diphenyltetrazolium bromide (MTT) assay against selected cancer human cell lines consisting of PC3 (prostate), HCT116 (colon), A375 (melanoma), H1299 (lung), MIAPaCa-2 (pancreas), HL60 (leukemia), MCF7 (breast), MDA-MB-231 (breast) (T. Mosmann, J. Immunol. Meth., 1983, 65, 55-63). The cells were cultured at 37° C. in RMPI1640 medium supplemented with 10% fetal bovine serum, 50 IU/mL penicillin, and 50 μg/mL streptomycin in a 5% CO2 incubator. All cells were sub-cultured 3 times/week by trypsinisation. Viable cells were seeded and allowed to adhere for 12 h before a test drug was added in 96-well plates at an initial density of 1.0×10^5 cells/mL. Tumour cell lines were separately exposed to various concentrations of the tested compounds followed by incubation at a temperature of 37° C. during 96 h inside a medium of fresh RMPI 1640. Cells were subsequently incubated at 37° C. using MTT at 0.5 mg/mL during 4 h. After removal of supernatant, formazan crystals were dissolved in isopropanol and the optical density was measured at 570 nm. CX-4945 was used as a positive control.
# HL60 (leukemia) = test: In vitro cytotoxic activity assay (MTT), HL60; format: cell-based; details: Homo sapiens, HL-60; HL60 (leukemia) cells, exposed for 96 hours; read-out: IC50, concentration eliciting 50% inhibition of cell proliferation
# Description: as §1
# recombinant human CK2 = target: T1, recombinant human CK2 (Homo sapiens, UniProt P68400); test: CK2 Kinase Assay (33P-ATP, substrate peptide RRRDDDSDDD); format: biochemical; details: final ATP concentration 15 μM, 10 min at 30° C.; read-out: protein kinase CK2 IC50
# T1 construct: purchased Millipore
# Description: CK2 Kinase Assay was conducted using the protocol as described in Pierre F. et al; J. Med. Chem. 2011, 54, 635-654. The tested compounds in aqueous solution were added at a volume of 10 μL to a reaction mixture comprising 10 μL of assay dilution buffer (ADB; 20 mM MOPS, pH 7.2, 25 mM β-glycerol phosphate, 5 mM EGTA, 1 mM sodium orthovanadate, and 1 mM dithiothreitol), 10 μL of substrate peptide (RRRDDDSDDD, dissolved in ADB at a concentration of 1 mM), 10 μL of recombinant human CK2 (RROP-holoenzyme, 25 ng dissolved in ADB; Millipore). Reactions were initiated by the addition of 10 μL of ATP solution (90% 75 mMMgCl2, 75 μM ATP (final ATP concentration: 15 μM) dissolved in ADB; 10% [γ-33P] ATP (stock 1 mCi/100 L; 3000 Ci/mmol (Perkin-Elmer) and maintained for 10 min at 30° C. The reactions were quenched with 100 μL of 0.75% phosphoric acid and then transferred to and filtered through a phosphor cellulose filter plate (Millipore). After washing each well five times with 0.75% phosphoric acid, the plate was dried under vacuum for 5 min and, following the addition of 15 μL of scintillation fluid to each well, the residual radioactivity was measured using a Wallac luminescence counter. The IC50 values were derived from eight concentrations of test inhibitors.
# PC3 (prostate) = test: In vitro cytotoxic activity assay (MTT), PC3; format: cell-based; details: Homo sapiens, Prostate cell; PC3 (prostate) cells, exposed for 96 hours; read-out: IC50, concentration eliciting 50% inhibition of cell proliferation
# Description: as §1
# MCF7 (breast) = test: In vitro cytotoxic activity assay (MTT), MCF7; format: cell-based; details: Homo sapiens; MCF7 (breast) cells, exposed for 96 hours; read-out: IC50, concentration eliciting 50% inhibition of cell proliferation
# Description: as §1
# A375 (melanoma) = test: In vitro cytotoxic activity assay (MTT), A375; format: cell-based; details: Homo sapiens, A-375; A375 (melanoma) cells, exposed for 96 hours; read-out: IC50, concentration eliciting 50% inhibition of cell proliferation
# Description: as §1
# HCT116 (colon) = test: In vitro cytotoxic activity assay (MTT), HCT116; format: cell-based; details: Homo sapiens, HCT-116; HCT116 (colon) cells, exposed for 96 hours; read-out: IC50, concentration eliciting 50% inhibition of cell proliferation
# Description: as §1
# MDA-MB-231 (breast) = test: In vitro cytotoxic activity assay (MTT), MDA-MB-231; format: cell-based; details: Homo sapiens; MDA-MB-231 (breast) cells, exposed for 96 hours; read-out: IC50, concentration eliciting 50% inhibition of cell proliferation
# Description: as §1
# MIAPaCa-2 (pancreas) = test: In vitro cytotoxic activity assay (MTT), MIAPaCa-2; format: cell-based; details: Homo sapiens, MIA PaCa-2; MIAPaCa-2 (pancreas) cells, exposed for 96 hours; read-out: IC50, concentration eliciting 50% inhibition of cell proliferation
# Description: as §1
# T1 sequence (P68400 whole entry): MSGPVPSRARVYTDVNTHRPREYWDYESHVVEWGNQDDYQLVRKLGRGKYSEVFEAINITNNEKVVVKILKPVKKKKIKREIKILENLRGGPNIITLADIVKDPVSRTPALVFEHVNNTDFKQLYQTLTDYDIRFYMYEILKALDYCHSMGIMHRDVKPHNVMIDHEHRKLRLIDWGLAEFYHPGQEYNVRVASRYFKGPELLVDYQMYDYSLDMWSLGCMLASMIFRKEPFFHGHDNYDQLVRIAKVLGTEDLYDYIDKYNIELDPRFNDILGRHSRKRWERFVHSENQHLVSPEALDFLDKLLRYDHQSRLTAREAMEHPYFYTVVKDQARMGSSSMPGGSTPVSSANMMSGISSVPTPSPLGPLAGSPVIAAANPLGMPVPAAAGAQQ
# T1 sequence (P67870 whole entry partner): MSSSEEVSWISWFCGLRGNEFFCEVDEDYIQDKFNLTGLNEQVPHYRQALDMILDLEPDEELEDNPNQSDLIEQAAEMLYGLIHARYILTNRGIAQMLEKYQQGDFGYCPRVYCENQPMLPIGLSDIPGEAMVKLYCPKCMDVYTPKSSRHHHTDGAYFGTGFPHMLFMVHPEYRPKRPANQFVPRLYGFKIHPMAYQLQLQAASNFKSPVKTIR
structure (smiles),measurement,setting,value
"Clc1cccc(-n2c3ccncc3c3nc4cnccn4c32)c1 [Compound 1, 5-(3-chlorophenyl)-5H-pyrido[3″,4″:4′,5′]pyrrolo[3′,2′:4,5]imidazo[1,2-a]pyrazine]",IC50,H1299 (lung),2100 nM
same,IC50,HL60 (leukemia),3000 nM
same,IC50,recombinant human CK2,47 nM
same,IC50,PC3 (prostate),1500 nM
same,IC50,MCF7 (breast),5600 nM
same,IC50,A375 (melanoma),4400 nM
same,IC50,HCT116 (colon),1900 nM
same,IC50,MDA-MB-231 (breast),3900 nM
same,IC50,MIAPaCa-2 (pancreas),1200 nM
